Measured values taken from PubChem BioAssay AID1918930 (Molecular Pharmacology Branch, DTP, NCI, 2023).

System: 233499-124-R-J3-PDC complex spheroid viability, % test/control
Assay: Anticancer human tumor 233499-124-R-J3-PDC patient-derived colon adenocarcinoma cell line growth inhibition
Conditions: for IC50: curve of first compound; for viability, T/C: stronger effect = lower value
Outline: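 Drug combinations with the LSD1 inhibitor iadademstat tested on tumor cells co-cultured as spheroids with endothelial cells and mesenchymal stem cells. Concentrations descended in half-log increments from clinical Cmax or 10 microM.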

[1] = second compound 0.1 µM, first compound 0.0316 µM
[2] = second compound 0.1 µM, first compound 0.1 µM
[3] = second compound 0.1 µM, first compound 0.316 µM
[4] = second compound 0.1 µM, first compound 1 µM
[5] = second compound 0.316 µM, first compound 0.0316 µM
[6] = second compound 0.316 µM, first compound 0.1 µM
[7] = second compound 0.316 µM, first compound 0.316 µM
[8] = second compound 0.316 µM, first compound 1 µM
[9] = second compound 1 µM, first compound 0.0316 µM
[10] = second compound 1 µM, first compound 0.1 µM
[11] = second compound 1 µM, first compound 0.316 µM
[12] = second compound 1 µM, first compound 1 µM
[13] = second compound 3.16 µM, first compound 0.0316 µM
[14] = second compound 3.16 µM, first compound 0.1 µM
[15] = second compound 3.16 µM, first compound 0.316 µM
[16] = second compound 3.16 µM, first compound 1 µM
[17] = second compound 10 µM, first compound 0.0316 µM
[18] = second compound 10 µM, first compound 0.1 µM
[19] = second compound 10 µM, first compound 0.316 µM
[20] = second compound 10 µM, first compound 1 µM
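Also: spheroids exposed to agents for one week before readout.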

Row | SMILES | IC50 (second compound 0.1 µM) [nM] | IC50 (second compound 0.316 µM) [nM] | IC50 (second compound 1 µM) [nM] | IC50 (second compound 3.16 µM) [nM] | IC50 (second compound 10 µM) [nM] | viability, T/C [1] [%] | viability, T/C [2] [%] | viability, T/C [3] [%] | viability, T/C [4] [%] | viability, T/C [5] [%] | viability, T/C [6] [%] | viability, T/C [7] [%] | viability, T/C [8] [%] | viability, T/C [9] [%] | viability, T/C [10] [%] | viability, T/C [11] [%] | viability, T/C [12] [%] | viability, T/C [13] [%] | viability, T/C [14] [%] | viability, T/C [15] [%] | also measured
1 | CC(C)c1c(-c2ccccc2)nc2c(C#N)c[nH]n2c1=O + NC1CCC(NC2CC2c2ccccc2)CC1 | > 10000 | > 10000 | > 10000 | > 10000 | > 10000 | 119 | 98.5 | 99.8 | 102 | 93.6 | 110 | 97.3 | 107 | 83.7 | 104 | 90 | 101 | 89.1 | 85.9 | 96.8 | viability, T/C (second compound 0.1 µM, first compound 3.16 µM): 118%; viability, T/C (second compound 0.1 µM, first compound 10 µM): 120%; viability, T/C (second compound 0.316 µM, first compound 3.16 µM): 118%; viability, T/C (second compound 0.316 µM, first compound 10 µM): 115%; viability, T/C (second compound 1 µM, first compound 3.16 µM): 100%; viability, T/C (second compound 1 µM, first compound 10 µM): 101%; viability, T/C [16]: 85.6%; viability, T/C (second compound 3.16 µM, first compound 3.16 µM): 103%; viability, T/C (second compound 3.16 µM, first compound 10 µM): 104%; viability, T/C [17]: 83.7%; viability, T/C [18]: 84.8%; viability, T/C [19]: 86.2%; viability, T/C [20]: 83.6%; viability, T/C (second compound 10 µM, first compound 3.16 µM): 85.9%; viability, T/C (second compound 10 µM, first compound 10 µM): 74.2%
2 | CC1COCCN1c1cc(-c2ccnn2C)c2ccnc(-c3ccn[nH]3)c2n1 (stereo not given) + NC1CCC(NC2CC2c2ccccc2)CC1 | 28.5 | 57.7 | 19 | 22.7 | 17.5 | 46.1 | 45.4 | 25.4 | 30.7 | 63.8 | 39.1 | 30.1 | 33.6 | 32.8 | 33.9 | 21.9 | 28.5 | 39.9 | 30 | 18.1 | viability, T/C (second compound 0.1 µM, first compound 0.00316 µM): 86.8%; viability, T/C (second compound 0.1 µM, first compound 0.01 µM): 91.9%; viability, T/C (second compound 0.316 µM, first compound 0.00316 µM): 101%; viability, T/C (second compound 0.316 µM, first compound 0.01 µM): 79.2%; viability, T/C (second compound 1 µM, first compound 0.00316 µM): 87.3%; viability, T/C (second compound 1 µM, first compound 0.01 µM): 71.1%; viability, T/C (second compound 3.16 µM, first compound 0.00316 µM): 81.1%; viability, T/C (second compound 3.16 µM, first compound 0.01 µM): 71.2%; viability, T/C [16]: 22.2%; viability, T/C (second compound 10 µM, first compound 0.00316 µM): 79.5%; viability, T/C (second compound 10 µM, first compound 0.01 µM): 63.5%; viability, T/C [17]: 35%; viability, T/C [18]: 27.3%; viability, T/C [19]: 17.8%; viability, T/C [20]: 23.1%
